# Measurements as given in US8507656B2, “Stabilized angiopoietin-2 antibodies and uses thereof” (MedImmune Limited, priority 2008, dated 2013).
# Entries after “also recorded” stand apart in the source; their conditions may differ. Marks after values point to notes of the source that are not given here.
# How the values were obtained:
# HT-29 xenograft tumors = assay: HT-29 xenograft model of colorectal cancer; format: in vivo; details: 3.19.3 10 mg/kg 2×wk i.p., Irinotecan 35 mg/kg/week i.v., combination of both
# Procedure: (§1) The anti-tumor activity of 3.19.3 was evaluated in combination with Irinotecan in the HT-29 xenograft model of colorectal cancer. HT-29 cells were cultured in flasks as routine until the cells reached sub-confluence. Cell suspensions containing approximately 3×10E6 cells were injected subcutaneously into the flank of female Swiss nude mice. When the tumor volume reached 200 mm^3, the mice were randomized in treatment groups of 8-10 mice and the treatments were initiated. 3.19.3 (10 mg/kg) in saline was injected intraperitoneally, twice per week for 2 weeks. Irinotecan (35 mg/kg) was administered by intravenous administration following a weekly schedule. The dimensions of each tumor and body weights were measured at least twice per week. The volume of the tumor was calculated as: Volume=Length×(Width)×0.5 (cm^3). […] The % tumor growth inhibition achieved is as follows: […]
# [1] = test system: MDA-MB-231 xenograft tumors; assay: MDA-MB-231 orthotopic breast cancer xenograft model; format: in vivo; details: 3.19.3 10 mg/kg 2×wk i.p., AZD6495 30 mg/kg bid p.o. 18 d, combination of both
# Procedure: The anti-tumor activity of the anti-Angiopoietin-2 monoclonal antibody 3.19.3 in combination with the small molecule CSF1R tyrosine kinase inhibitor AZD6495 was evaluated in a xenograft model of human breast carcinoma using the MDA-MB-231 cell line (FIG. 5a).
# Breast adenocarcinoma MDA-MB-231 cells were cultured in flasks as routine until the cells reach sub-confluence. Immunodeficient 7-10 week old female nude mice were orthotopically implanted with 8×10^6 MDA-MB-231 cells suspended 1:1 in Matrigel into the mammary fat pad. The mice were then randomized into cohorts containing 10 mice once the tumors reached approximately 100 mm^3. The mice were treated by intraperitoneally (IP) injection with mAb 3.19.3 (10 mg/kg) twice per week for 3 weeks thereafter, or by oral administration of AZD6495 (30 mg/kg) following bid dosing for 18 days. […] The body weights of each animal, and the dimensions of each tumor were measured twice per week. The volume of the tumor was calculated as: Volume=Length×(Width)^2×0.5 cm^3, or by bilateral Vernier caliper measurement and, taking length to be the longest diameter across the tumor and width the corresponding perpendicular, calculated using the formula (π/6)×(length×width)×√(length×width). Growth inhibition from the start of treatment was assessed by comparison of the differences in tumor volume between control and treated groups.
# LoVo xenograft tumors = format: in vivo; details: 3.19.3 10 mg/kg 2×wk i.p., 5FU 100 mg/kg/week i.p., combination of both
# Procedure: (§2) The anti-tumor activity of 3.19.3 was evaluated in combination with 5-Fluoruracil (5FU) in the LoVo xenograft model of colorectal cancer. LoVo cells were cultured in flasks as routine until the cells reached sub-confluence. Cell suspensions containing approximately 3×10E6 cells were injected subcutaneously into the flank of female Swiss nude mice. When the tumor volume reached 200 mm^3, the mice were randomized in treatment groups of 8-10 mice and the treatments were initiated. 3.19.3 (10 mg/kg) in saline was injected intraperitoneally, twice per week for 2 weeks and 5-Flurouracil (100 mg/kg) was administered by intraperitoneal administration following a weekly schedule. The dimensions of each tumor and body weights were measured at least twice per week. The volume of the tumor was calculated as: Volume=Length×(Width)×0.5 (cm^3).
# Calu6 xenograft tumors = format: in vivo; details: 3.19.3 10 mg/kg 2×wk i.p., Docetaxel 15 mg/kg/week i.v., combination of both
# Procedure: as §2, with “with Docetaxel” for “with 5-Fluoruracil (5FU)”, “the Calu6” for “the LoVo”, “of lung” for “of colorectal”, “cancer. Calu6” for “cancer. LoVo”, “2 weeks. Docetaxel (15” for “2 weeks and 5-Flurouracil (100”, “by intravenous” for “by intraperitoneal”
# [2] = test system: collagen-induced arthritis; assay: Collagen-induced arthritis (CIA), dose response (Example 11); format: in vivo, male DBA/1 mice
# Colo205 xenograft tumors = assay: Colo205 xenograft model of colorectal cancer; format: in vivo; details: 3.19.3 10 mg/kg 2×wk i.p., Gemcitabine 50 mg/kg q3dx2 i.v., combination of both
# Procedure: as §1, with “Gemcitabine” for “Irinotecan”, “Colo205” for “HT-29”, “Gemcitabine (50” for “Irinotecan (35”, “q3d” for “weekly”
# [3] = test system: collagen induced arthritis
# [4] = 0.1 mg/kg ip every 3 days for 14 days from disease onset
# [5] = 1 mg/kg ip every 3 days for 14 days from disease onset
# [6] = 10 mg/kg ip every 3 days for 14 days from disease onset
# [7] = means ± SEM, 3.19.3 10 mg/kg i.p every 3 days, hIgG i.p, Prednisolone 3 mg/kg p.o daily, 14 days from disease onset
substance,measurement,setting,value
"3.19.3: fully human anti-Ang-2 monoclonal antibody, wild type control; light chain SEQ ID No. 1, heavy chain SEQ ID No. 2 [Antibody 3.19.3]",% tumor growth inhibition,HT-29 xenograft tumors,44%
same,% tumor growth inhibition,[1],17%
same,% tumor growth inhibition,LoVo xenograft tumors,59%
same,% tumor growth inhibition,Calu6 xenograft tumors,20%
same,% inhibition (AUC of Clinical Score),[2]; [4],16% +/− 13%
same,AUC of Clinical Score,[2]; [4],99 +/− 15
same,% inhibition (AUC of Clinical Score),[2]; [5],53% +/− 7%*
same,AUC of Clinical Score,[2]; [5],46 +/− 9
same,% inhibition (AUC of Clinical Score),[2]; [6],44% +/− 9%*
same,AUC of Clinical Score,[2]; [6],67 +/− 11
same,CD31+ microvessel density in synovium (in words),[2]; 3.19.3 0.1 mg/kg,no effect
same,"histopathological evaluation: synovial hyperplasia, synovitis, pannus, synovial fibrosis, periostitis (in words)","[2]; 3.19.3 0.1, 1 and 10 mg/kg, isotype control vs PBS vehicle",dose-dependent anti-arthritic effect
same,CD31+ microvessel density in synovium (in words),"[2]; 3.19.3 at 1 and 10 mg/kg, prednisolone 3 mg/kg",significant reduction in microvessel density; also recorded: significant reduction in the presence of microvessels
same,clinical signs of disease progression (arthritic score) (in words),[2]; doses of 1 and 10 mg/kg,significant reduction
same,% tumor growth inhibition,Colo205 xenograft tumors,74%
same,clinical signs of disease progression (arthritic score) and histological assessment of synovitis and joint destruction (in words),"[3]; 3.19.3 10 mg/kg, vs vehicle control",Significant reductions
same,% Inhibition (of AUC of clinical disease progression),[3]; [7],64.3% ± 8.6%
same,Area Under Curve (AUC) of clinical disease progression,[3]; [7],36.0 ± 8.7
same,tolerability by mean body weight (in words),"[3]; mouse, in vivo, 10 mg/kg",well tolerated
